Values of other authors as cited in patent US20120258972A1, “Composition and Methods for Treating Hair Loss” (priority 2011, published 2012).

Columns and labels:
[1] = target: T1, Type II isozyme of 5-alpha reductase (Homo sapiens, UniProt P31213)
T1 sequence (P31213 1-254): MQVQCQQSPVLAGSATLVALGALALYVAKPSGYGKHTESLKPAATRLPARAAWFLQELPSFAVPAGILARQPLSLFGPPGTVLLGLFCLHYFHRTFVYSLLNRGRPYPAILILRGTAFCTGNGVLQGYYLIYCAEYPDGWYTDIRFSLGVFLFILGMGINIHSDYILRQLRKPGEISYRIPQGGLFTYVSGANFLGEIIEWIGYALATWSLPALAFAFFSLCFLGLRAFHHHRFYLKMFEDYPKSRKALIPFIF

[2] = test system: male pattern hair loss; conditions: oral dutasteride 0.5 mg and 2.5 mg/day; 12 and 24 weeks
[3] = target: T2, type I isozyme of 5-alpha reductase (Homo sapiens, UniProt P18405)
T2 sequence (P18405 1-259): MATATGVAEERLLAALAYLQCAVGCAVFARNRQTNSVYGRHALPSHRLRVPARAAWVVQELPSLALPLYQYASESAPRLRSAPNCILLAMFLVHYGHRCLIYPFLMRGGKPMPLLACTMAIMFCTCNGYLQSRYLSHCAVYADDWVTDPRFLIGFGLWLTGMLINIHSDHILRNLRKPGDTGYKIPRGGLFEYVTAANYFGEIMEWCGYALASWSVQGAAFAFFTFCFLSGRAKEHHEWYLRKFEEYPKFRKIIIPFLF

[4] = test system: serum dihydrotestosterone; conditions: oral
[5] = test system: C.3H/HeN mice; conditions: topical application
[6] = test system: men with androgenic alopecia; conditions: ketoconazole shampoo 2% versus 2% minoxidil regimen

Compound | Potency relative to finasteride at inhibiting the Type II isozyme of 5-alpha reductase [1] | Hair count compared with 5 mg/day finasteride [2] | Potency relative to finasteride at inhibiting the type I isozyme of 5-alpha reductase [3] | Decrease of serum dihydrotestosterone [4] | Effect on hair growth in mice [5] | Hair density, size, and proportion of anagen follicles [6]
C[C@]12C=CC(=O)N[C@@H]1CC[C@@H]1[C@@H]2CC[C@]2(C)[C@@H](C(=O)Nc3cc(C(F)(F)F)ccc3C(F)(F)F)CC[C@@H]12 [dutasteride] | 3 times | superior hair count | more than 100 times | up to 90% |  | 
CC(C)(C)NC(=O)[C@H]1CC[C@H]2[C@@H]3CC[C@H]4NC(=O)C=C[C@]4(C)[C@H]3CC[C@]12C [finasteride] |  |  |  | about 70% |  | 
CC(=O)N1CCN(c2ccc(OCC3COC(Cn4ccnc4)(c4ccc(Cl)cc4Cl)O3)cc2)CC1 (stereo not shown) [ketoconazole] |  |  |  |  | stimulatory effect on hair growth | improved almost similarly
